Results on six compounds are retold here after patent US10836732B2, “Compounds for combating arthropods” (priority 2013, dated 2020).

For data set [1], the system named is Lucilia cuprina. Kind of data set: Lucilia cuprina - test. The class given is in vivo. The settings on record: 100 ppm, L1 larvae, after 2 days. The protocol: (§1) Solvent: dimethyl sulphoxide
(§2) To produce an appropriate active ingredient formulation, 10 mg of active ingredient are mixed with 0.5 ml of dimethyl sulphoxide, and the concentrate is diluted with water to the desired concentration.
About 20 L1 larvae of the Australian sheep blowfly (Lucilia cuprina) are transferred into a test vessel containing minced horsemeat and the active ingredient preparation of the desired concentration.
After 2 days, the kill in % is determined 100% means that all the larvae have been killed; 0% means that none of the larvae have been killed.

Data set [2] has as its system Musca domestica. Kind of data set: Musca domestica - test. The class given is in vivo. The note with it: 100 ppm, adult houseflies, after 2 days. The procedure: as §1, §2
Vessels containing a sponge treated with sugar solution and the active ingredient formulation of the desired concentration are populated with 10 adult houseflies (Musca domestica).
After 2 days, the kill in % is determined 100% means that all of the flies have been killed; 0% means that none of the flies have been killed.

The subject of data set [3] is Boophilus microplus. Kind of data set: Boophilus microplus - injection test. Format: in vivo. The settings on record: 20 μg/animal, injected into engorged adult female cattle ticks, after 7 days. The protocol:
as §1
To produce an appropriate active ingredient formulation, 10 mg of active ingredient are mixed with 0.5 ml of solvent and the concentrate is diluted with solvent to the desired concentration.
1 μl of the active ingredient solution is injected into the abdomen of 5 engorged adult female cattle ticks (Boophilus microplus). The animals are transferred into dishes and kept in a climate-controlled room.
(§3) Efficacy is assessed after 7 days by laying of fertile eggs. Eggs which are not visibly fertile are stored in a climate-controlled cabinet until the larvae hatch after about 42 days. An efficacy of 100% means that none of the ticks has laid any fertile eggs; 0% means that all the eggs are fertile.

Data set [4] deals with Rhipicephalus sanguineus. Description: Rhipicephalus sanguineus - in vitro contact tests with adult brown dog ticks. The note with it: 5 μg/cm^2, adult dog ticks, after 48 h. The class given is in vivo. The protocol:
For the coating of the test tubes, 9 mg of active ingredient are first dissolved in 1 ml of acetone p.a. and then diluted to the desired concentration with acetone p.a. 250 μl of the solution are distributed homogeneously on the inner walls and base of a 25 ml test tube by turning and rocking on an orbital shaker (rocking rotation at 30 rpm for 2 h). With 900 ppm active ingredient solution and internal surface 44.7 cm^2, given homogeneous distribution, an area-based dose of 5 μg/cm^2 is achieved.
After the solvent has evaporated off, the tubes are populated with 5-10 adult dog ticks (Rhipicephalus sanguineus), sealed with a perforated plastic lid and incubated in a horizontal position in the dark at room temperature and ambient humidity. After 48 h, efficacy is determined To this end, the ticks are knocked to the floor of the tube and incubated on a hotplate at 45-50° C. for not more than 5 min Ticks which remain motionless on the floor or move in such an uncoordinated manner that they are unable to deliberately avoid the heat by climbing upwards are considered to be dead or moribund.
An efficacy of 100% means that all the ticks were dead or moribund. 0% efficacy means that none of the ticks had been harmed.

Data set [5] concerns Amblyomma hebraeum. Description: Amblyomma hebaraeum - test (tick nymphs, immersion). The settings on record: 100 ppm, tick nymphs immersed one minute, after 42 days. The class given is in vivo. The procedure: as §1, §2
Tick nymphs (Amblyomma hebraeum) are placed into perforated plastic beakers and immersed in the desired concentration for one minute. The ticks are transferred on filter paper into a Petri dish and stored in a climate-controlled cabinet.
After 42 days, the kill in % is determined 100% means that all of the ticks have been killed; 0% means that none of the ticks have been killed.

A short description of data set [6]: logP by HPLC on reversed-phase column (C18), EEC Directive 79/831 Annex V.A8. The class given is physicochemical.
The test system of data set [7] is Spodoptera frugiperda. Description: Spodoptera frugiperda - spray test. The class given is in vivo. The note with it: maize leaf discs, after 7 days. The protocol:
(§4) Solvent: 78.0 parts by weight of acetone
(§5) • 1.5 parts by weight of dimethylformamide Emulsifier: alkylaryl polyglycol ether
(§6) To produce an appropriate active ingredient formulation, 1 part by weight of active ingredient is dissolved using the specified parts by weight of solvent and made up with water containing an emulsifier concentration of 1000 ppm until the desired concentration is attained. To produce further test concentrations, the preparation is diluted with emulsifier-containing water.
Leaf discs of maize (Zea mays) are sprayed with an active ingredient formulation of the desired concentration and, after drying, populated with caterpillars of the armyworm (Spodoptera frugiperda).
After 7 days, efficacy in % is determined. 100% means that all the caterpillars have been killed; 0% means that no caterpillars have been killed.

Data set [8] concerns Boophilus microplus Parkhurst strain, SP-resistant. Kind of data set: Boophilus microplus - dip test. Format: in vivo. The settings on record: 100 ppm, adult engorged female cattle ticks, after 7 days. The procedure:
Test animals: cattle ticks (Boophilus microplus) Parkhurst strain, SP-resistant
as §1
10 mg of active ingredient are dissolved in 0.5 ml of dimethyl sulphoxide. For the purpose of producing a suitable formulation, the active ingredient solution is diluted with water to the concentration desired in each case.
This active ingredient formulation is pipetted into tubes. 8-10 adult engorged female cattle ticks (Boophilus microplus) are transferred into a further tube with holes. The tube is immersed into the active ingredient formulation, and all the ticks are completely wetted. After the liquid has run out, the ticks are transferred on filter discs into plastic dishes and stored in a climate-controlled room.
as §3

Data set [9] relates to Ctenocephalides felis. Description: Ctenocephalides felis - oral test. The note with it: 100 ppm in citrated cattle blood, adult cat fleas, after 2 days. The class given is in vivo. The procedure: as §1
For the purpose of producing an appropriate active ingredient formulation, 10 mg of active ingredient are mixed with 0.5 ml of dimethyl sulphoxide. Dilution with citrated cattle blood gives the desired concentration.
About 20 unfed adult cat fleas (Ctenocephalides felis) are placed into a chamber which is closed at the top and bottom with gauze. A metal cylinder whose bottom end is closed with parafilm is placed onto the chamber. The cylinder contains the blood/active ingredient preparation, which can be imbibed by the fleas through the parafilm membrane.
After 2 days, the kill in % is determined 100% means that all of the fleas have been killed; 0% means that none of the fleas have been killed.

In data set [10] the test system is Tetranychus urticae. Description: Tetranychus urticae - spray test, OP-resistant. Format: in vivo. The settings on record: bean leaf discs, after 6 days. The procedure:
as §4, §5, §6
Discs of bean leaves (Phaseolus vulgaris) infested by all stages of the greenhouse red spider mite (Tetranychus urticae) are sprayed with an active ingredient formulation of the desired concentration.
After 6 days, efficacy in % is determined 100% means that all the spider mites have been killed; 0% means that none of the spider mites have been killed.

The subject of data set [11] is Phaedon cochleariae. Description: Phaedon cochleariae - spray test. The class given is in vivo. The note with it: Chinese cabbage leaf discs, after 7 days. The protocol: as §4, §5, §6
Discs of Chinese cabbage leaves (Brassica pekinensis) are sprayed with an active ingredient formulation of the desired concentration and, after drying, populated with larvae of the mustard beetle (Phaedon cochleariae).
After 7 days, efficacy in % is determined 100% means that all the beetle larvae have been killed; 0% means that no beetle larvae have been killed.

Data set [12] has as its system Ctenocephalides felis. Description: Ctenocephalides felis - in vitro contact tests with adult cat fleas. The class given is in vivo. The note with it: 5 μg/cm^2, adult cat fleas, after 48 h. The protocol: For the coating of the test tubes, 9 mg of active ingredient are first dissolved in 1 ml of acetone p.a. and then diluted to the desired concentration with acetone p.a. 250 μl of the solution are distributed homogeneously on the inner walls and base of a 25 ml test tube by turning and rocking on an orbital shaker (rocking rotation at 30 rpm for 2 h). With 900 ppm active ingredient solution and internal surface area 44.7 cm^2, given homogeneous distribution, an area-based dose of 5 μg/cm^2 is achieved.
After the solvent has evaporated off, the tubes are populated with 5-10 adult cat fleas (Ctenocephalides felis), sealed with a perforated plastic lid and incubated in a horizontal position at room temperature and ambient humidity. After 48 h, efficacy is determined. To this end, the test tubes are stood upright and the fleas are knocked to the base of the tube. Fleas which remain motionless at the base or move in an uncoordinated manner are considered to be dead or moribund.
100% efficacy means that all the fleas were dead or moribund. 0% efficacy means that no fleas were harmed.

Data set [13] relates to Anopheles funestus strain FUMOZ-R. Kind of data set: Anopheles test (ANPHFU surface treatment). Format: in vivo. The settings on record: 20 mg/m^2, glazed tile, exposure 30 minutes, 24 hours after contact. The protocol: Solvent: acetone+2000 ppm rapeseed oil methyl ester (RME)
To produce an appropriate active ingredient formulation, the active ingredient is dissolved in the solvent (2 mg/ml). The active ingredient formulation is pipetted onto a glazed tile and, after it has dried off, adult mosquitoes of the species Anopheles funestus strain FUMOZ-R (Hunt et al., Med Vet Entomol. 2005 September; 19(3):271-5) are placed onto the treated tile. The exposure time is 30 minutes.
24 hours after contact with the treated surface, mortality in % is determined 100% means that all mosquitoes have been killed; 0% means that none of the mosquitoes have been killed.

Data set [14] has as its system Myzus persicae. Description: Myzus persicae - spray test. Format: in vivo. The note with it: 500 g/ha, Chinese cabbage leaf discs, after 6 days. The protocol:
Solvent: 78 parts by weight of acetone
as §5, §6
Discs of Chinese cabbage leaves (Brassica pekinensis) infested by all stages of the green peach aphid (Myzus persicae) are sprayed with an active ingredient formulation of the desired concentration.
After 6 days, efficacy in % is determined. 100% means that all the aphids have been killed; 0% means that none of the aphids have been killed.

A word on the logP: it is the decadic logarithm of the partition coefficient of the neutral form, usually between octanol and water. Low values mean lower lipophilicity, high ones higher lipophilicity.

Consider `O=C(NC1CC1)c1cc(-n2cc(-c3c(Cl)cc(C(F)(C(F)(F)F)C(F)(F)F)cc3Cl)nn2)ccc1Cl` [I-T48-3], for which the “efficacy (kill in %)” value in data set [1] is recorded as 100%; in data set [2], 100%; in data set [5], 90%; in data set [9], 100%. Moreover, the “efficacy (no fertile eggs laid)” value in data set [3] is on record as 100%; in data set [8], 90%. Besides, the “efficacy (dead or moribund)” value in [4] and in [12] was 100% each time. The same compound came in with a logP in data set [6] of 4.3. Also, in data set [7] (100 g/ha), the “efficacy (caterpillars killed)” value amounted to 100%. For the same compound, in [10] (100 g/ha), the “efficacy (spider mites killed)” value is on record as 100%. Further, in data set [11] (100 g/ha), the “efficacy (beetle larvae killed)” value came out at 100%.
Consider `N#CC1(NC(=O)c2cc(-n3cc(-c4c(Cl)cc(C(F)(C(F)(F)F)C(F)(F)F)cc4Cl)nn3)ccc2Cl)CC1` [I-T48-4], for which the “efficacy (kill in %)” value in data set [1], in data set [2] and in data set [9] was 100% throughout. Moreover, in data set [3], the “efficacy (no fertile eggs laid)” value worked out at 100%. For the same compound, the “efficacy (dead or moribund)” value in data set [4] and in data set [12] was 100% each time. The logP in [6] turned out to be 4.2. Further, the “efficacy (mortality in %)” value in data set [13] is on record as 90-100%. Also, the “efficacy (caterpillars killed)” value in [7] (100 g/ha) was determined as 100%. The “efficacy (spider mites killed)” value in data set [10] (100 g/ha) is 100%. The “efficacy (beetle larvae killed)” value in data set [11] (100 g/ha) came to 100%.
Consider `Cc1cc(C(F)(C(F)(F)F)C(F)(F)F)cc(C)c1-c1cn(-c2ccc(Cl)c(C(=O)NCC(F)(F)F)c2)nn1` [I-T48-5], for which the “efficacy (kill in %)” value in data set [1], in [2] and in data set [9] was 100% throughout. In addition, the “efficacy (no fertile eggs laid)” value in data set [3] was 100%. Further, the logP in data set [6] is recorded as 4.5. The “efficacy (caterpillars killed)” value in data set [7] (100 g/ha) turned out to be 100%. Moreover, the “efficacy (beetle larvae killed)” value in data set [11] (100 g/ha) was 100%.
In the case of `Cc1cc(C(F)(C(F)(F)F)C(F)(F)F)cc(C)c1-c1cn(-c2ccc(Cl)c(C(=O)NC3CSC3)c2)nn1` [I-T48-6], the “efficacy (kill in %)” value in data set [1], in data set [2] and in data set [9] was 100% each time. Besides, the “efficacy (no fertile eggs laid)” value in data set [3] was 100%. In data set [6], this compound returned a logP of 4.5. The “efficacy (caterpillars killed)” value in data set [7] (100 g/ha) was determined as 100%. The “efficacy (spider mites killed)” value in data set [10] (100 g/ha) was found to be 100%. Further, in data set [11] (100 g/ha), the “efficacy (beetle larvae killed)” value turned out to be 100%.
Consider `Cc1cc(C(F)(C(F)(F)F)C(F)(F)F)cc(C)c1-c1cn(-c2cnc(Cl)c(C(=O)NC3CC3)c2)nn1` [I-T48-7], for which the “efficacy (kill in %)” value in data set [1], in [2], in data set [5] and in data set [9] was 100% throughout. Further, the “efficacy (no fertile eggs laid)” value in data set [3] and in data set [8] was 100% throughout. In addition, the “efficacy (dead or moribund)” value in data set [4] amounted to 100%. Moreover, the “efficacy (caterpillars killed)” value in data set [7] (500 g/ha) was 100%. Moreover, the “efficacy (spider mites killed)” value in [10] (500 g/ha) is recorded as 100%. In addition, the “efficacy (beetle larvae killed)” value in data set [11] (500 g/ha) turned out to be 100%. The “efficacy (aphids killed)” value in [14] is listed as 100%.
For the compound `Cc1cc(C(F)(C(F)(F)F)C(F)(F)F)cc(C)c1-c1cn(-c2cnc(Cl)c(C(=O)NC3(C#N)CC3)c2)nn1` [I-T48-8], the “efficacy (no fertile eggs laid)” value in data set [3] and in data set [8] was 100% each time. Also, the “efficacy (kill in %)” value in data set [5] and in data set [9] was 100% throughout. Moreover, the “efficacy (caterpillars killed)” value in data set [7] (500 g/ha) amounted to 100%. In addition, the “efficacy (spider mites killed)” value in data set [10] (500 g/ha) is listed as 100%. For the same compound, the “efficacy (beetle larvae killed)” value in data set [11] (500 g/ha) is reported as 100%. Also, the “efficacy (aphids killed)” value in data set [14] is given as 100%.
